Columns and labels:
L1210 [1] = test: Inhibition of transport of [3H]-spermidine by L1210 cells; assay type: functional, cell-based, Mus musculus
L1210 [2] = test: Effect of compound on the level of putrescine in polyamine pools of L1210 cells after 48 hr of treatment with 20 uM compound dose; assay type: functional, Mus musculus
L1210 [3] = test: Effect of compound on the level of spermidine in polyamine pools of L1210 cells after 48 hr of treatment with 20 uM compound dose; assay type: functional, Mus musculus
L1210 [4] = test: Inhibitory concentration of compound against the growth of the L1210 cell line at 48 hr; assay type: functional, cell-based; details: Mus musculus, L1210, 48 h
[5] = Number of CD-1 mice died after administration of 400 mg/kg dose of compound; 0/5; assay type: functional, Mus musculus
[6] = Number of CD-1 mice died in a 5-day course after administration of 100 mg/kg dose of compound; 0/5; assay type: functional, Mus musculus
L1210 [7] = test: Effect of compound on the level of spermine in polyamine pools of L1210 cells after 48 hr of treatment with 20 uM compound dose; assay type: functional, Mus musculus
L1210 [8] = test: Effect of compound on the level of spermidine in polyamine pools of L1210 cells after 48 hr of treatment with 4 uM compound dose; assay type: functional, Mus musculus
L1210 [9] = test: Amount of compound present per 10e6 L1210 cells after 48 hr of treatment with 4 uM of it; assay type: functional, cell-based; details: Mus musculus
L1210 [10] = test: Effect of compound on the level of putrescine in polyamine pools of L1210 cells after 48 hr of treatment with 4 uM compound dose; assay type: functional, Mus musculus
[11] = Number of CD-1 mice died after administration of 200 mg/kg dose of compound; 0/5; assay type: functional, Mus musculus
L1210 [12] = test: Inhibitory concentration of compound against the growth of the L1210 cell line at 96 hr; assay type: functional, cell-based; details: Mus musculus, L1210, 96 h
[13] = biological target: T1, Spermidine/spermine N(1)-acetyltransferase (SAT) (Mus musculus) (UniProt Q6P8J2+P48026); test: Percent of Spermidine/spermine-N1- acetyltransferase enzyme activity in L1210 cells after 48 hr of treatment with 10 uM dose of compound; assay type: cell-based
T1 sequence (P48026 whole entry, looked up): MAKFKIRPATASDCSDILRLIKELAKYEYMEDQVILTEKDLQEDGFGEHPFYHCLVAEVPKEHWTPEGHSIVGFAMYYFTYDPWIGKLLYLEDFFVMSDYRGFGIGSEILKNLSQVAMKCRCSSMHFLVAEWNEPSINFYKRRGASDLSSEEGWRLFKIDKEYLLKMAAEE
T1 sequence (Q6P8J2 whole entry, looked up): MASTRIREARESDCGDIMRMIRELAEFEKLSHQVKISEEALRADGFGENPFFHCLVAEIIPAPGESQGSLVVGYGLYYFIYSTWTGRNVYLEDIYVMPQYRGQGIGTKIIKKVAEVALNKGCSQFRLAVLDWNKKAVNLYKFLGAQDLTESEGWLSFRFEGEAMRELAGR

L1210 [14] = test: Percent of S-adenosyl-methionine decarboxylase enzyme activity in L1210 cells after 6 hr of treatment with 1 uM dose of compound; assay type: cell-based
L1210 [15] = test: Effect of compound on the level of spermine in polyamine pools of L1210 cells after 48 hr of treatment with 4 uM compound dose; assay type: functional, Mus musculus
[16] = Number of CD-1 mice died in a 5-day course after administration of 200 mg/kg dose of compound; 0/5; assay type: functional, Mus musculus
[17] = biological target: T2, Ornithine decarboxylase (Mus musculus) (UniProt P00860); test: Percent of ornithine decarboxylase enzyme activity in L1210 cells after 4 hr of treatment with 1 uM dose of compound; assay type: cell-based
T2 sequence (whole entry): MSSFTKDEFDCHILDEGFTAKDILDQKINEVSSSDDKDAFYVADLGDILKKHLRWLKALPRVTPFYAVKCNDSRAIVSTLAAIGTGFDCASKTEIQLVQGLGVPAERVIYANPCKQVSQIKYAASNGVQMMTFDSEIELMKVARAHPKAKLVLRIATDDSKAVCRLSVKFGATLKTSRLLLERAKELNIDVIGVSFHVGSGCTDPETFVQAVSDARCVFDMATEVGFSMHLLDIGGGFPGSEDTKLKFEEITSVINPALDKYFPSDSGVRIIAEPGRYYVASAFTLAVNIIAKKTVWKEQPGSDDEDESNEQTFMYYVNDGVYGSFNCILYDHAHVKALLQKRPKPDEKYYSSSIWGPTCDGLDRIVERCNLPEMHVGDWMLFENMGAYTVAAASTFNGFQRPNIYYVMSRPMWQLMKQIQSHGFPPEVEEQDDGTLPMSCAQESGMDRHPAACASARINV

L1210 [18] = test: Amount of compound present per 10e6 L1210 cells after 48 hr of treatment with 20 uM of it; assay type: functional, cell-based; details: Mus musculus
[19] = Number of CD-1 mice died in a 5-day course after administration of 300 mg/kg dose of compound; 0/5; assay type: functional, Mus musculus
[20] = Number of CD-1 mice died after administration of 100 mg/kg dose of compound; 0/5; assay type: functional, Mus musculus
[21] = biological target: T2, Ornithine decarboxylase (Mus musculus); test: Percent of ornithine decarboxylase enzyme activity in L1210 cells after 4 hr of treatment with 1 uM of dose; assay type: cell-based
L1210 [22] = test: Effect of compound on the level of spermine in polyamine pools of L1210 cells after 48 hr of treatment with 100 uM of dose; assay type: functional, Mus musculus
L1210 [23] = test: Inhibition of transport of [3H]spermidine in L1210 cells; assay type: functional, cell-based, Mus musculus
[24] = Number of CD-1 mice died in a 5-day course after administration of 10 mg/kg dose of compound; 0/7; assay type: functional, Mus musculus
L1210 [25] = test: Percent of S-adenosyl-methionine decarboxylase enzyme activity in L1210 cells after 6 hr of treatment with 1 uM of dose; assay type: cell-based
L1210 [26] = test: Effect of compound on the level of putrescine in polyamine pools of L1210 cells after 48 hr of treatment with 20 uM of dose; assay type: functional, Mus musculus
L1210 [27] = test: Effect of compound on the level of spermidine in polyamine pools of L1210 cells after 48 hr of treatment with 100 uM of dose; assay type: functional, Mus musculus
[28] = biological target: T1, Spermidine/spermine N(1)-acetyltransferase (SAT) (Mus musculus); test: Percent of Spermidine/spermine-N1- acetyltransferase enzyme activity in L1210 cells after 48 hr of treatment with 10 uM of dose; assay type: cell-based
[29] = Number of CD-1 mice died in a 5-day course after administration of 50 mg/kg dose of compound; 0/7; assay type: functional, Mus musculus
[30] = Number of CD-1 mice died in a 5-day course after administration of 75 mg/kg dose of compound; 0/5; assay type: functional, Mus musculus
L1210 [31] = test: Effect of compound on the level of spermine in polyamine pools of L1210 cells after 48 hr of treatment with 20 uM of dose; assay type: functional, Mus musculus
L1210 [32] = test: Amount of compound present per 10e6 L1210 cells after 48 hr of treatment with 100 uM of dose; assay type: functional, cell-based; details: Mus musculus
L1210 [33] = test: Amount of compound present per 10e6 L1210 cells after 48 hr of treatment with 20 uM of dose; assay type: functional, cell-based; details: Mus musculus
[34] = Number of CD-1 mice died in a 5-day course after administration of 25 mg/kg dose of compound; 0/7; assay type: functional, Mus musculus
[35] = Number of CD-1 mice died after administration of 200 mg/kg dose of compound; 5/5; assay type: functional, Mus musculus
[36] = Number of CD-1 mice died after administration of 100 mg/kg dose of compound; 1/5; assay type: functional, Mus musculus
L1210 [37] = test: Effect of compound on the level of putrescine in polyamine pools of L1210 cells after 48 hr of treatment with 100 uM of dose; assay type: functional, Mus musculus
L1210 [38] = test: Effect of compound on the level of spermidine in polyamine pools of L1210 cells after 48 hr of treatment with 20 uM of dose; assay type: functional, Mus musculus
L1210 [39] = test: Effect of compound on the level of spermidine in polyamine pools of L1210 cells after 48 hr of treatment with 10 uM of dose; assay type: functional, Mus musculus
[40] = Number of CD-1 mice died in a 6-day course after administration of 200 mg/kg dose of compound; 10/12; assay type: functional, Mus musculus
[41] = Number of CD-1 mice died after administration of 325 mg/kg dose of compound; 5/10; assay type: functional, Mus musculus
L1210 [42] = test: Effect of compound on the level of spermine in polyamine pools of L1210 cells after 48 hr of treatment with 10 uM of dose; assay type: functional, Mus musculus
L1210 [43] = test: Amount of compound present per 10e6 L1210 cells after 48 hr of treatment with 10 uM of dose; assay type: functional, cell-based; details: Mus musculus
L1210 [44] = test: Effect of compound on the level of putrescine in polyamine pools of L1210 cells after 48 hr of treatment with 10 uM of dose; assay type: functional, Mus musculus

Question: With `CCNC[C@H](O)CNCCCNC[C@@H](O)CNCC1CC1` as the compound, how does the Ki (L1210 [1]) read?
Answer: 40 µM

Question: What about the Control (L1210 [2]) of the same compound?
Answer: 20%

Question: And the Control (L1210 [3])?
Answer: 32%

Question: And the IC50 (L1210 [4])?
Answer: 4.5 µM

Question: And the “No. of deaths/mice injected” value [5]?
Answer: 0

Question: What about the “No. of deaths/mice injected” value [6] of the same compound?
Answer: 0

Question: What about the Control (L1210 [7]) of the same compound?
Answer: 123%

Question: What about the Control (L1210 [8]) of the same compound?
Answer: 48%

Question: What about the Amount (nmol/10^6 cells) (L1210 [9]) of the same compound?
Answer: 1.94

Question: What about the Control (L1210 [10]) of the same compound?
Answer: 43%

Question: What about the “No. of deaths/mice injected” value [11] of the same compound?
Answer: 0

Question: What about the IC50 (L1210 [12]) of the same compound?
Answer: 0.97 µM

Question: And the Control [13]?
Answer: 2500%

Question: And the Control (L1210 [14])?
Answer: 59%

Question: What about the Control (L1210 [15]) of the same compound?
Answer: 119%

Question: What about the “No. of deaths/mice injected” value [16] of the same compound?
Answer: 0

Question: What about the Control [17] of the same compound?
Answer: 37%

Question: What about the Amount (nmol/10^6 cells) (L1210 [18]) of the same compound?
Answer: 3.05

Question: And the “No. of deaths/mice injected” value [19]?
Answer: 0

Question: What about the “No. of deaths/mice injected” value [20] of the same compound?
Answer: 0

Question: Which Control [21] does the source give for `CCNC[C@H](O)CNCCCNC[C@@H](O)CNCC` here?
Answer: 61%

Question: With `CCNC[C@@H](O)CNCCCNC[C@H](O)CNCC` as the compound, how does the Control [21] read?
Answer: 35%

Question: What does the source list for `CCNCCCNCCCNCCCNCC1CC1`?
Answer: Control (L1210 [22]): 56%; Ki (L1210 [23]): 13 µM; IC50 (L1210 [4]): 16 µM; No. of deaths/mice injected [24]: 0; No. of deaths/mice injected [6]: 0; Control (L1210 [25]): 48%; Control (L1210 [26]): 22%; Control (L1210 [27]): 16%; Control [28]: 3260%; No. of deaths/mice injected [29]: 0; No. of deaths/mice injected [30]: 0; IC50 (L1210 [12]): 0.55 µM; Control (L1210 [31]): 66%; Concentration (L1210 [32]): 2.59 nM; Concentration (L1210 [33]): 2.17 nM; No. of deaths/mice injected [34]: 0; No. of deaths/mice injected [35]: 5; No. of deaths/mice injected [36]: 1; Control [21]: 26%; Control (L1210 [37]): 13%; Control (L1210 [38]): 25%

Question: With `CCNCCCNCCCNCCCNCC` [BIS(ETHYL)NORSPERMINE] as the compound, how does the Control (L1210 [22]) read?
Answer: 30%

Question: What about the Control (L1210 [39]) of the same compound?
Answer: 14%

Question: And the “No. of deaths/mice injected” value [40]?
Answer: 10

Question: What about the Ki (L1210 [23]) of the same compound?
Answer: 7 µM

Question: And the “No. of deaths/mice injected” value [41]?
Answer: 5

Question: And the Control (L1210 [25])?
Answer: 42%

Question: And the Control (L1210 [42])?
Answer: 31%

Question: And the Control (L1210 [27])?
Answer: 6%

Question: What about the Control [28] of the same compound?
Answer: 3880%

Question: And the Concentration (L1210 [43])?
Answer: 1.59 nM

Question: And the Concentration (L1210 [32])?
Answer: 2.44 nM

Question: And the Control [21]?
Answer: 7%

Question: And the Control (L1210 [37])?
Answer: 0%

Question: And the Control (L1210 [44])?
Answer: 30%
